Measured values taken from ChEMBL document CHEMBL1201862, “PubChem BioAssay data set” (2004).
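Cells were grown in 96-well plates and exposed to each compound for 48 hours at five concentrations; endpoints were interpolated linearly between bracketing concentrations, or set to the highest concentration if not reached. GI50: concentration for 50% inhibition of growth.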 Active and inactive are the calls of the source. Cut-off read from the data, not from the text of the source: active = GI50 up to about 1.1 µM and inactive = higher.

Legend:
Assay in all cases: NCI anticancer screen, dose series, 48 h
A549 = test system: A549
KM12 = test system: KM12
IGROV-1 = test system: IGROV-1
SW-620 = test system: SW-620
OVCAR-3 = test system: OVCAR-3
NCI/ADR-RES = test system: NCI/ADR-RES
SK-MEL-2 = test system: SK-MEL-2
OVCAR-5 = test system: OVCAR-5
RXF 393 = test system: RXF 393
Hs-578T = test system: Hs-578T
MCF7 = test system: MCF7
A498 = test system: A498
EKVX = test system: EKVX
NCI-H23 = test system: NCI-H23
UACC-257 = test system: UACC-257
SNB-19 = test system: SNB-19
ACHN = test system: ACHN
NCI-H460 = test system: NCI-H460
SNB-75 = test system: SNB-75
M14 = test system: M14

Row | Structure (SMILES) | GI50 (A549) | GI50 (KM12) | GI50 (IGROV-1) | GI50 (SW-620) | GI50 (OVCAR-3) | GI50 (NCI/ADR-RES) | GI50 (SK-MEL-2) | GI50 (OVCAR-5) | GI50 (RXF 393) | GI50 (Hs-578T) | GI50 (MCF7) | GI50 (A498) | GI50 (EKVX) | GI50 (NCI-H23) | GI50 (UACC-257) | GI50 (SNB-19) | GI50 (ACHN) | GI50 (NCI-H460) | GI50 (SNB-75) | GI50 (M14)
1 | CC(=O)Nc1c(C)cc(OCC(=O)O)cc1C | > 100 µM (inactive) | > 100 µM (inactive) | > 100 µM (inactive) | > 100 µM (inactive) | > 100 µM (inactive) | > 100 µM (inactive) | > 100 µM (inactive) | > 100 µM (inactive) | > 100 µM (inactive) | > 100 µM (inactive) | > 100 µM (inactive) | > 100 µM (inactive) | > 100 µM (inactive) | > 100 µM (inactive) | > 100 µM (inactive) | > 100 µM (inactive) | > 100 µM (inactive) | > 100 µM (inactive) | > 100 µM (inactive) | > 100 µM (inactive)
2 | CN(O)C(=S)c1ccccc1 | 4.26 µM (inactive) | 5.86 µM (inactive) | 3.52 µM (inactive) | 1.25 µM (inactive) | 2.45 µM (inactive) | 0.746 µM (active) | 5.07 µM (inactive) | 78.5 µM (inactive) | 3.19 µM (inactive) | > 20.2 µM (inactive) | 1.1 µM (active) | 20.2 µM (inactive) | 15.5 µM (inactive) | 1.91 µM (inactive) | 13.1 µM (inactive) | 30.2 µM (inactive) | 4.42 µM (inactive) | 2.9 µM (inactive) | 4.31 µM (inactive) | 3.98 µM (inactive)
3 | CC(C)C(=O)NCC[C@@H](CNC(=O)OC(C)(C)C)NC(=O)OC(C)(C)C | > 100 µM (inactive) | > 100 µM (inactive) | > 100 µM (inactive) | > 100 µM (inactive) | > 100 µM (inactive) | > 100 µM (inactive) | > 100 µM (inactive) | > 100 µM (inactive) | > 100 µM (inactive) | > 100 µM (inactive) | > 100 µM (inactive) | > 100 µM (inactive) | > 100 µM (inactive) | > 100 µM (inactive) | > 100 µM (inactive) | > 100 µM (inactive) | > 100 µM (inactive) | > 100 µM (inactive) | > 100 µM (inactive) | > 100 µM (inactive)
4 | Oc1ccc2c(c1)-c1c(c3ccccc3n1CCN1CCOCC1)CC2 |  | 20 µM (inactive) | 15.3 µM (inactive) | > 10 µM (inactive) | 33.5 µM (inactive) | 32.7 µM (inactive) | 25 µM (inactive) | 23.9 µM (inactive) | 66.7 µM (inactive) | 63.4 µM (inactive) | 37.2 µM (inactive) | > 100 µM (inactive) | 53.2 µM (inactive) | 27.9 µM (inactive) | 27.9 µM (inactive) | 38.6 µM (inactive) | 23.1 µM (inactive) | > 100 µM (inactive) | 27 µM (inactive) | 27.2 µM (inactive)
5 | COc1cc2c(cc1OC)-c1cc3ccccc3c(=O)n1CCC2 | 8.28 µM (inactive) | 8.47 µM (inactive) | 7.48 µM (inactive) | 8.32 µM (inactive) | 15.9 µM (inactive) | 5.27 µM (inactive) | 29.3 µM (inactive) | 45.7 µM (inactive) | 5.02 µM (inactive) | 14.8 µM (inactive) | 7.71 µM (inactive) | 6.62 µM (inactive) | 21.9 µM (inactive) | 19.7 µM (inactive) | 19.8 µM (inactive) | 18 µM (inactive) | 13.4 µM (inactive) | 1.76 µM (inactive) | 19.1 µM (inactive) | 14.8 µM (inactive)
6 | O=C1N/N=C\c2ccc(cc2)OCc2cccc(n2)COc2ccc(cc2)/C=N\NC1=O | > 25 µM (inactive) | > 25 µM (inactive) | > 25 µM (inactive) | > 25 µM (inactive) | > 25 µM (inactive) | > 25 µM (inactive) | > 25 µM (inactive) | > 25 µM (inactive) | > 25 µM (inactive) | 13.6 µM (inactive) | > 25 µM (inactive) | > 25 µM (inactive) | > 25 µM (inactive) | > 25 µM (inactive) | > 25 µM (inactive) | > 25 µM (inactive) | > 25 µM (inactive) | > 25 µM (inactive) | 14.6 µM (inactive) | > 25 µM (inactive)
7 | Cc1cc(C2(c3cc(C)c(O)c4ncccc34)OC(=O)c3ccccc32)c2cccnc2c1O | < 0.001 µM (active) | 0.0668 µM (active) | 0.0378 µM (active) | 0.0304 µM (active) | 0.0056 µM (active) | 0.0344 µM (active) | 0.262 µM (active) | 11.3 µM (inactive) | 0.741 µM (active) | 0.0127 µM (active) | < 0.001 µM (active) | 1.47 µM (inactive) | 0.0203 µM (active) | 0.0187 µM (active) | 2.77 µM (inactive) | 0.0174 µM (active) | 0.00662 µM (active) | < 0.001 µM (active) | 0.069 µM (active) | 0.0625 µM (active)
8 | O=C1Nc2ccc(Br)cc2/C1=N/S(=O)(=O)O | 26.1 µM (inactive) | 28.4 µM (inactive) | 55.2 µM (inactive) | 18.2 µM (inactive) | 40.7 µM (inactive) | 29.4 µM (inactive) | 6.61 µM (inactive) | 27.6 µM (inactive) | 48.4 µM (inactive) | > 100 µM (inactive) | 17.8 µM (inactive) | > 100 µM (inactive) | 29.2 µM (inactive) | 19.6 µM (inactive) | 15.9 µM (inactive) | > 100 µM (inactive) | 45.9 µM (inactive) | 29 µM (inactive) | 24.5 µM (inactive) | 38.5 µM (inactive)
9 | O=c1c2ccccc2[se]n1-c1cccnc1 | 40.6 µM (inactive) | 79.3 µM (inactive) | 19.8 µM (inactive) | 29 µM (inactive) | 29.1 µM (inactive) | 33.5 µM (inactive) | 19.3 µM (inactive) | 46.2 µM (inactive) | 29.2 µM (inactive) | 20.1 µM (inactive) | 29.4 µM (inactive) | 24.7 µM (inactive) | 33.4 µM (inactive) | 21.4 µM (inactive) | 23.4 µM (inactive) | 49.4 µM (inactive) | 28.1 µM (inactive) | 53.6 µM (inactive) | 18.1 µM (inactive) | 30.7 µM (inactive)
10 | COC(=O)[C@@H]1CC(C(CN)c2cn(C(=O)OC(C)(C)C)c3ccccc23)C(=O)N1C(=O)OC(C)(C)C (some centres undefined) | 35.3 µM (inactive) | 52.2 µM (inactive) | 17.9 µM (inactive) | 50.7 µM (inactive) | 24.6 µM (inactive) | 17.2 µM (inactive) | 22.4 µM (inactive) | 27.2 µM (inactive) | 18 µM (inactive) | 28.2 µM (inactive) | 23.8 µM (inactive) | 20.1 µM (inactive) | 19.4 µM (inactive) | 35.8 µM (inactive) | 17.7 µM (inactive) | 69.3 µM (inactive) | 29.3 µM (inactive) | 23.6 µM (inactive) | 6.31 µM (inactive) | 50.7 µM (inactive)
11 | C=CC(Cl)(CBr)CCC(Br)=C(C)C (centres undefined) | 43.6 µM (inactive) | 20.2 µM (inactive) | 12.1 µM (inactive) | 15.8 µM (inactive) | 24.5 µM (inactive) | 28.8 µM (inactive) | 16.6 µM (inactive) | 26.8 µM (inactive) | 17.5 µM (inactive) | 28.2 µM (inactive) | 14.2 µM (inactive) | > 100 µM (inactive) | 35.4 µM (inactive) | 25.9 µM (inactive) | 25.8 µM (inactive) | 34.5 µM (inactive) | 21.6 µM (inactive) | 18.9 µM (inactive) | 41.5 µM (inactive) | 25.5 µM (inactive)
12 | O=C1c2ccccc2C(=O)c2c1ccc1c3ccccc3n(-c3ccccc3)c21 | 27.7 µM (inactive) | 29.2 µM (inactive) | 25.4 µM (inactive) | 15.8 µM (inactive) | 19.5 µM (inactive) | 39.7 µM (inactive) | 25.7 µM (inactive) | 27 µM (inactive) | 14.1 µM (inactive) | 15 µM (inactive) | 16 µM (inactive) | 46 µM (inactive) | 41.3 µM (inactive) | 15.4 µM (inactive) | 20.7 µM (inactive) | 75.5 µM (inactive) | 17.3 µM (inactive) | 27.2 µM (inactive) | 18.3 µM (inactive) | 12.4 µM (inactive)
13 | CC/C(Cl)=N\OC(=O)Nc1ccc(OC)c(C)c1 | 27.9 µM (inactive) | 23.8 µM (inactive) | 16.4 µM (inactive) | 24.3 µM (inactive) | 16.4 µM (inactive) | 15 µM (inactive) | 19 µM (inactive) | 30.5 µM (inactive) | 14.6 µM (inactive) | 16.9 µM (inactive) | 16.7 µM (inactive) | 26.5 µM (inactive) | 3.15 µM (inactive) | 15 µM (inactive) | 16.5 µM (inactive) | 42.1 µM (inactive) | 8.93 µM (inactive) | 41.2 µM (inactive) | 80 µM (inactive) | 17.9 µM (inactive)
14 | CN(C)CCNC(=O)c1cccc2nc3c(nc12)-c1ccccc1C3=O | 12.5 µM (inactive) | 10 µM (inactive) | 20.9 µM (inactive) | 6.43 µM (inactive) | 16.6 µM (inactive) | 12.4 µM (inactive) | 17 µM (inactive) | 24.8 µM (inactive) | 16.8 µM (inactive) | 18.5 µM (inactive) | 6.34 µM (inactive) | 14.4 µM (inactive) | 22.8 µM (inactive) | 13.3 µM (inactive) | 13.4 µM (inactive) | 18.3 µM (inactive) | 4.78 µM (inactive) | 4.99 µM (inactive) | 13.8 µM (inactive) | 15.8 µM (inactive)
